The values that follow come from patent US11325916B1, “Spiropyrrolidine derived antiviral agents” (priority 2021, dated 2022).

In one assay the target is SARS-CoV-2 3CL-protease (Severe acute respiratory syndrome coronavirus 2 (2019-nCoV) (SARS-CoV-2), UniProt P0DTD1). In words: SARS-CoV-2 3C-Like (3CL) Protease Fluorescence Assay (FRET). Type of assay: biochemical.
The test system of assay [1] is 229E human corona virus (hCoV). In words: 229E Live Virus Assay (MRC-5 cells, CPE, ATPlite readout). It counts as cell-based, hCoV-229E. Conditions: Human coronavirus 229E, MRC5, 144 h, read-out: 229E EC50.

pEC50, pIC50: −log10 of the molar value.

For `CN(C(=O)[C@H](CC1CC1)NS(=O)(=O)c1ccn(-c2ccc(F)cc2)n1)[C@@H](CC(C)(C)C)C(=O)N1C[C@]2(C[C@H]1C#N)C(=O)Nc1ccccc12` [Example 70], on SARS-CoV-2 3CL-protease, the pIC50 – broadly, −log10 of the IC50, conventionally taken in molar units – was over 7.00. The pEC50 (usually −log10 of the EC50, conventionally taken in molar units) in assay [1] is over 7.00.
On SARS-CoV-2 3CL-protease, `CN(C(=O)[C@H](CC1CC1)N1CCOC1=O)[C@@H](CC(C)(C)C)C(=O)N1C[C@]2(C[C@H]1C#N)C(=O)Nc1ccccc12` [Example 72] gave a pIC50 of over 7.00. Also, in assay [1], the pEC50 is over 7.00.
At SARS-CoV-2 3CL-protease, `[2H]C([2H])([2H])N(C(=O)[C@H](CC1CC1)NC(C)=O)[C@@H](Cc1ccc(F)cc1)C(=O)N1C[C@]2(C[C@H]1C#N)C(=O)Nc1ccccc12` [Example 73] showed a negative-log IC50 (pIC50) of over 7.00. For the same compound, the pEC50 in assay [1] was over 7.00.
In the case of `[2H]C([2H])([2H])N(C(=O)[C@H](CC1CC1)NC(=O)C(F)(F)F)[C@@H](Cc1ccc(F)cc1)C(=O)N1C[C@]2(C[C@H]1C#N)C(=O)Nc1ccccc12` [Example 74], the pIC50 on SARS-CoV-2 3CL-protease was over 7.00. The negative-log EC50 (pEC50) in assay [1] is over 7.00.
For `CN(C(=O)[C@H](CC1CC1)NC(=O)C(F)(F)F)[C@@H](CC(C)(C)C)C(=O)N1C[C@]2(C[C@H]1C#N)C(=O)Nc1ccccc12` [Example 75], the pIC50 on SARS-CoV-2 3CL-protease was over 7.00. Besides, the pEC50 in assay [1] was over 7.00.
`CN(C(=O)[C@H](CC1CC1)NC(=O)C1CC1)[C@@H](CC(C)(C)C)C(=O)N1C[C@]2(C[C@H]1C#N)C(=O)Nc1ccccc12` [Example 76]: the pIC50 on SARS-CoV-2 3CL-protease is over 7.00. Further, the pEC50 in assay [1] is over 7.00.
In the case of `[2H]C([2H])([2H])N(C(=O)[C@H](CC1CC1)NC(=O)C1COC1)[C@@H](Cc1ccc(F)cc1)C(=O)N1C[C@]2(C[C@H]1C#N)C(=O)Nc1ccccc12` [Example 77], the pIC50 on SARS-CoV-2 3CL-protease was over 7.00. In addition, the pEC50 in assay [1] was 6.00 to 7.00.
Taken in the same sequence, the figures for `CC(=O)N[C@@H](CC1CC1)C(=O)N(C)[C@@H](CC(C)(C)C)C(=O)N1C[C@]2(C[C@H]1C#N)C(=O)Nc1ccccc12` [Example 78] were over 7.00 and over 7.00.
Taken in the same sequence, the figures for `CC(C)C(=O)N[C@@H](CC1CC1)C(=O)N(C)[C@@H](CC(C)(C)C)C(=O)N1C[C@]2(C[C@H]1C#N)C(=O)Nc1ccccc12` [Example 80] were over 7.00 and over 7.00.
Consider `CN(C(=O)[C@H](CC1CC1)NS(C)(=O)=O)[C@@H](CC(C)(C)C)C(=O)N1C[C@]2(C[C@H]1C#N)C(=O)Nc1ccccc12` [Example 81], for which the pIC50 against SARS-CoV-2 3CL-protease was over 7.00. In assay [1], the negative-log EC50 (pEC50) was over 7.00.
Turning to `CN(C(=O)[C@H](CC1CC1)NS(=O)(=O)C1CC1)[C@@H](CC(C)(C)C)C(=O)N1C[C@]2(C[C@H]1C#N)C(=O)Nc1ccccc12` [Example 82], the pIC50 against SARS-CoV-2 3CL-protease is over 7.00. Also, the pEC50 in assay [1] is over 7.00.
Consider `CN(C(=O)[C@H](CC1CC1)NC(=O)N1CCOCC1)[C@@H](CC(C)(C)C)C(=O)N1C[C@]2(C[C@H]1C#N)C(=O)Nc1ccccc12` [Example 83], for which the pIC50 on SARS-CoV-2 3CL-protease was over 7.00. For the same compound, the pEC50 in assay [1] is over 7.00.
As for `CN(C(=O)[C@H](CC1CC1)NC(=O)NC1CC1)[C@@H](CC(C)(C)C)C(=O)N1C[C@]2(C[C@H]1C#N)C(=O)Nc1ccccc12` [Example 85], the pIC50 on SARS-CoV-2 3CL-protease is over 7.00. Moreover, the pEC50 in assay [1] was over 7.00.
In turn, `CC(C)[C@H](NC(=O)OCc1ccccc1)C(=O)N[C@@H](CC(C)(C)C)C(=O)N1C[C@]2(C[C@H]1C#N)C(=O)Nc1ccccc12` [Example 86] gave a pIC50 against SARS-CoV-2 3CL-protease of over 7.00. Further, in assay [1], the pEC50 is 6.00 to 7.00.
In the same order, the values of `CC(=O)N[C@H](C(=O)N[C@@H](CC(C)(C)C)C(=O)N1C[C@]2(C[C@H]1C#N)C(=O)Nc1ccccc12)C(C)C` [Example 88] are 6.00 to 7.00 and 6.00 to 7.00.
In turn, `CC(=O)N[C@@H](C(=O)N[C@@H](CC(C)(C)C)C(=O)N1C[C@]2(C[C@H]1C#N)C(=O)Nc1ccccc12)C(C)C` [Example 89] gave a pIC50 against SARS-CoV-2 3CL-protease of 6.00 to 7.00. Also, the pEC50 in assay [1] is 6.00 to 7.00.
On SARS-CoV-2 3CL-protease, `CC(C)[C@H](NC(=O)C(F)(F)F)C(=O)N[C@@H](CC(C)(C)C)C(=O)N1C[C@]2(C[C@H]1C#N)C(=O)Nc1ccccc12` [Example 90] had a pIC50 of over 7.00. The pEC50 in assay [1] was 6.00 to 7.00.
Taken in the same sequence, the figures for `CC(C)[C@@H](NC(=O)C(F)(F)F)C(=O)N[C@@H](CC(C)(C)C)C(=O)N1C[C@]2(C[C@H]1C#N)C(=O)Nc1ccccc12` [Example 91] were 6.00 to 7.00 and 6.00 to 7.00.
In the case of `CC(C)[C@H](NC(=O)c1cc2c(F)cc(F)c(F)c2[nH]1)C(=O)N[C@@H](CC(C)(C)C)C(=O)N1C[C@]2(C[C@H]1C#N)C(=O)Nc1ccccc12` [Example 92], the pIC50 against SARS-CoV-2 3CL-protease was over 7.00. In assay [1], the pEC50 is 6.00 to 7.00.
As to `CC(C)[C@@H](NC(=O)c1cc2c(F)cc(F)c(F)c2[nH]1)C(=O)N[C@@H](CC(C)(C)C)C(=O)N1C[C@]2(C[C@H]1C#N)C(=O)Nc1ccccc12` [Example 93], the pIC50 on SARS-CoV-2 3CL-protease was under 6.00. The pEC50 in assay [1] was under 6.00.
With `CC(C)(C)C[C@H](NC(=O)[C@H](CC1CC1)NC(=O)OCc1ccccc1)C(=O)N1C[C@]2(C[C@H]1C#N)C(=O)Nc1ccccc12` [Example 94], at SARS-CoV-2 3CL-protease, the pIC50 is over 7.00. The pEC50 in assay [1] was over 7.00.
For the compound `CC(C)[C@H](NC(=O)c1ccc(F)c(F)c1)C(=O)N(C)[C@@H](CC(C)(C)C)C(=O)N1C[C@]2(C[C@H]1C#N)C(=O)Nc1ccccc12` [Example 107], the pIC50 at SARS-CoV-2 3CL-protease was over 7.00. Also, the pEC50 in assay [1] was 6.00 to 7.00.
For `CC(C)[C@H](NC(=O)c1cc(F)c(F)c(F)c1)C(=O)N(C)[C@@H](CC(C)(C)C)C(=O)N1C[C@]2(C[C@H]1C#N)C(=O)Nc1ccccc12` [Example 108], the pIC50 against SARS-CoV-2 3CL-protease was over 7.00. Besides, the negative logarithm of the EC50 (pEC50) in assay [1] was 6.00 to 7.00.
Compound `CC(C)[C@H](NC(=O)c1ccc2c(F)cc(F)cc2n1)C(=O)N(C)[C@@H](CC(C)(C)C)C(=O)N1C[C@]2(C[C@H]1C#N)C(=O)Nc1ccccc12` [Example 109] had a pIC50 at SARS-CoV-2 3CL-protease of over 7.00. The pEC50 in assay [1] is 6.00 to 7.00.
Taken in the same sequence, the figures for `CC(C)[C@H](NC(=O)OCC1(c2ccccc2)CC1)C(=O)N(C)[C@@H](CC(C)(C)C)C(=O)N1C[C@]2(C[C@H]1C#N)C(=O)Nc1ccccc12` [Example 110] were over 7.00 and 6.00 to 7.00.
`CC(C)[C@H](NC(=O)N1CCCCC1)C(=O)N(C)[C@@H](CC(C)(C)C)C(=O)N1C[C@]2(C[C@H]1C#N)C(=O)Nc1ccccc12` [Example 112]: the pIC50 against SARS-CoV-2 3CL-protease is over 7.00. The pEC50 in assay [1] was 6.00 to 7.00.
Compound `CC(=O)N[C@@H](Cc1cc(F)c(F)cc1F)C(=O)N(C)[C@@H](CC(C)(C)C)C(=O)N1C[C@]2(C[C@H]1C#N)C(=O)Nc1ccccc12` [Example 113] had a pIC50 against SARS-CoV-2 3CL-protease of over 7.00. Also, the pEC50 in assay [1] was over 7.00.
In the case of `CC(=O)N[C@H](Cc1cc(F)c(F)cc1F)C(=O)N(C)[C@@H](CC(C)(C)C)C(=O)N1C[C@]2(C[C@H]1C#N)C(=O)Nc1ccccc12` [Example 114], the pIC50 against SARS-CoV-2 3CL-protease is over 7.00. In addition, in assay [1], the pEC50 was over 7.00.
`CC(C)C[C@@H](C(=O)N1C[C@]2(C[C@H]1C#N)C(=O)Nc1ccccc12)N(C)C(=O)C1(NC(=O)OCc2ccccc2)CCCC1` [Example 115]: the pIC50 against SARS-CoV-2 3CL-protease is over 7.00. Moreover, in assay [1], the pEC50 was 6.00 to 7.00.
Taken in the same sequence, the figures for `CC(C)OC(=O)N[C@@H](CC1CC1)C(=O)N(C)[C@@H](CC(C)(C)C)C(=O)N1C[C@]2(C[C@H]1C#N)C(=O)Nc1ccccc12` [Example 121] were over 7.00 and over 7.00.
As for `CN(C(=O)[C@H](CC1CC1)NC(=O)C1COC1)[C@@H](CC(C)(C)C)C(=O)N1C[C@]2(C[C@H]1C#N)C(=O)Nc1ccccc12` [Example 122], the negative logarithm of the IC50 (pIC50) against SARS-CoV-2 3CL-protease was over 7.00. The pEC50 in assay [1] was over 7.00.
